The test has as its system HFD-fed C57BL/6 mice. The test is described as follows: Metabolic profile of HFD-fed mice (diet-induced obesity). Type of test: in vivo. Particulars: for non-fasting blood glucose level: 50 mg/kg 3 times a week. As to the method:
FIG. 12 indicates the improvement of the metabolic profile of HFD-feed mice by MSL-7: (FIG. 12A) Confocal microscopic result of HeLa cells transfected with tandem mRFP-GFP-LC3 and treated with MSL-7 in which red puncta indicates autophagolysosome. (FIG. 12B, 12C) 8 week old male C57BL/6 mice were fed with HFD or normal chow diet (NCD) for 8 weeks, and then 50 mg/kg MSL-7 was administered three times a week for 8 weeks. Non-fasting glucose level (FIG. 12B) and body weight (FIG. 12C) were monitored. (FIG. 12D) IPGTT. (FIG. 12E) AUC curve of (FIG. 12D). (FIG. 12F) ITT. (FIG. 12G) AUC curve of (FIG. 12F).
Screening of autophagy enhancer. […] Luciferase assay. Firefly and Renilla luciferase assays were conducted using the Dual-Luciferase Reporter Assay System (Promega) according to the manufacturer's recommendation. In brief, cells were lysed in 1× lysis buffer and subjected to a single round of freezing/thawing. Firefly luciferase was determined after mixing 5 μl of lysate with 25 μl of Luciferase Assay Reagent II. Renilla luciferase was then determined after further addition of 20 ul of Stop&Glo Reagent. Cell culture and media and drugs treatment. HeLa, TFEB-GFP-HeLa, SK-HEP1 (hepatoma cell line) and Hepa1c1c7 (hepatoma cell line) cells were cultured in the following media: (normal) Dulbecco's modified Eagle's medium (DMEM, Sigma-Aldrich) supplemented with 10% FBS and 1% penicillin/streptomycin; (starvation) HBSS media with Ca and Mg supplemented with 10 mM HEPES; Drugs treatment: MSL compound (50-100 μM); Rapamycin ([…]); Torin-1 (1 μM); Bafilomycin (100 nM); Cyclosporin A (10 μM); and FK506 (5 μM). Cells were treated with oleic acid (400 μM) and palmitic acid (400 μM) for 24 h. Where indicated, cells were washed off with HBSS and replaced by DMEM with or without MSL for 16 h. INS-1 cells, a insulinoma cell line of […] were cultured as described previously (Kim et al., 2014 ibid) in the presence or absence of bafilomycin and treated with MSL-7. Lactate dehydrogenase (LDH) assay. Cytotoxicity was determined by the measurement of LDH release in cell culture media using the LDH kit (Roche), according to the protocol from the manufacturer. Transfection and plasmids. Cells were transiently transfected with DNA plasmids 3×FLAG-hTFEB (A Ballabio), FYVE-dsRed (Cantley LC), RFP-LC3 or mRFP-GFP-LC3 using lipofectamine 2000 (Invitrogen) according to the protocol from the manufacturer. INS-1 cells were transfected with prepro-mIAPP-HA or prepro-hIAPP-HA using jetPEIDNA according to the manufacturer's protocol. Imaging and image quantification. Imaging was performed with a ×40 objective on an LSM780 confocal microscope (Zeiss). Image analysis (spot count per cell) was performed using Image J. When indicated, cells were stained for lipid droplets with BODIPY 493/503 (Invitrogen, […], 20 min) according to the manufacturer's methods. Formation of acidic vesicular organelles was quantitated by staining the cells with acridine orange (Invitrogen, 5 ug/ml, 10 min). Antibodies and western blotting. Cells or tissues were solubilized in lysis buffer supplemented with protease and phosphatase inhibitors and protein concentration was measured by the Bradford method. Ten to 30 micrograms were loaded on 4-12% Bis-Tris gel (NUPAGE, Invitrogen) or 8-15% SDS-PAGE, transferred to PVDF membranes and analyzed by western blot using the ECL method (Pierce). The following antibodies were used: LC3 (Novus NB100-2331, 1:1,000), p62 (Progen GP62-C, 1:1,000), b-actin (Santa Cruz sc-47778, 1:5,000), FLAG (Sigma-Aldrich F1804, 1:2,000), 70S6K (Cell Signaling 9202S, 1:1000), p-70S6K (Cell Signaling 9206S, 1:1000), mTOR (Cell Signaling 2983, 1:1000), pmTOR (Cell Signaling 2971S, 1:1000), TFEB (Cell Signaling 4240, 1:1000). Protein levels were quantified by using ImageJ software analysis. RNA extraction, RT and real-time RT-PCR. […]

The record followed here is patent publication US10881642B2, “Autophagy enhancer and use thereof” (Industry-Academic Cooperation Foundation, Yonsei University, priority 2016, dated 2021).

On to `COc1oc(-c2ccccc2Cl)nc1S(=O)(=O)c1ccccc1` [MSL-7, 2-(2-chlorophenyl)-5-methoxy-4-(phenylsulfonyl) oxazole], for which, for the setting “HFD, 8 weeks”, the “non-fasting blood glucose level” value is on record as “significantly reduced”; the “area under the curves (AUCs) of IPGTT and ITT” value is “reduced”; the body weight entry is recorded as “without changing the body weight”; the “glucose tolerance / glucose intolerance (IPGTT)” value is “significantly improved”. For the same compound, the “insulin sensitivity (ITT)” value (HFD, 8 weeks) is “significantly improved”. Moreover, the “glucose profile of lean or chow-fed mice” value (lean or chow-fed mice) is listed as “does not affect”.
With `CSc1oc(-c2ccccc2)nc1S(=O)(=O)c1ccc(F)cc1` [MSL], under “HFD, 8 weeks”, the “non-fasting blood glucose level” value was “reduced non-fasting blood glucose level and glucose intolerance in mice fed high-fat diet (HFD). however, statistical significance was not achieved for most comparisons”; the “glucose tolerance / glucose intolerance (IPGTT)” value was “reduced non-fasting blood glucose level and glucose intolerance in mice fed high-fat diet (HFD). however, statistical significance was not achieved for most comparisons”.
